{"source": "paper PMC5498579", "about": "“A novel function for globulin in sequestering plant hormone: Crystal structure of Wrightia tinctoria 11S globulin in complex with auxin” (Scientific Reports, 2017)", "molecular_target": "T1, Wrightia tinctoria 11S globulin (WTG) (Wrightia tinctoria, UniProt A0A162EGL7)", "T1 construct": "native purification from seeds; signal peptide (first 26 residues) removed; cleaved at Asn284-Gly285 into acidic and basic subunits joined by disulphide Cys120-Cys291; 18 C-terminal residues not seen; homohexamer", "assay": "X-ray crystal structure of complex ([…] Å); co-purified ligand identified by MALDI-MS and HRMS", "format": "binding", "settings": "naturally bound ligand; three pockets at interface of four chains between two trimers; two alternate orientations, 0.5 occupancy; crystals at pH 8.5", "data": [{"smiles": "O=C(O)Cc1c[nH]c2ccccc12", "note": "[Indole-3-acetic acid]", "values": [{"measurement": "X-ray crystal structure of complex (1.7 Å); co-purified ligand identified by MAL", "value": "clearly revealed the presence of an IAA molecule in alternate orientation at the hydrophobic site"}]}]}
